Measurements published in the NIST ThermoML archive (doi:10.1021/je700344f).
± gives the expanded uncertainty stated by the source.

Assay: xn = mol fraction of the nth substance listed
Conditions: 101 kPa, Liquid

CN(C)c1ccccc1 [N,N-dimethylaniline] + CCCCCCO
Conditions | mass density [kg/m3] | viscosity [mPa·s]
283.15 K, x2 = 0.1009 | 958.16 ± 3.2 | 1.749 ± 0.12
283.15 K, x2 = 0.2017 | 944.54 ± 3.5 | 1.867 ± 0.13
283.15 K, x2 = 0.3022 | 928.83 ± 3.9 | 2.079 ± 0.14
283.15 K, x2 = 0.4025 | 915.52 ± 4.3 | 2.306 ± 0.16
283.15 K, x2 = 0.5026 | 904.21 ± 4.5 | 2.676 ± 0.18
283.15 K, x2 = 0.6025 | 890.94 ± 4.9 | 3.092 ± 0.21
283.15 K, x2 = 0.7022 | 876.26 ± 5.2 | 3.708 ± 0.25
283.15 K, x2 = 0.8016 | 861.23 ± 5.6 | 4.614 ± 0.3
283.15 K, x2 = 0.9009 | 848.23 ± 5.9 | 5.687 ± 0.36
293.15 K, x2 = 0.1009 | 950 ± 3.4 | 1.448 ± 0.1
293.15 K, x2 = 0.2017 | 936.43 ± 3.8 | 1.527 ± 0.11
293.15 K, x2 = 0.3022 | 920.62 ± 4.1 | 1.667 ± 0.12
293.15 K, x2 = 0.4025 | 909.23 ± 4.4 | 1.837 ± 0.13
293.15 K, x2 = 0.5026 | 896.74 ± 4.7 | 2.086 ± 0.14
293.15 K, x2 = 0.6025 | 882.6 ± 5.1 | 2.359 ± 0.16
293.15 K, x2 = 0.7022 | 868.6 ± 5.4 | 2.821 ± 0.19
293.15 K, x2 = 0.8016 | 852.26 ± 5.8 | 3.401 ± 0.23
293.15 K, x2 = 0.9009 | 841.25 ± 6.1 | 4.138 ± 0.27
303.15 K, x2 = 0.1009 | 942.24 ± 3.6 | 1.221 ± 0.088
303.15 K, x2 = 0.2017 | 928.31 ± 4 | 1.276 ± 0.092
303.15 K, x2 = 0.3022 | 912.67 ± 4.3 | 1.38 ± 0.099
303.15 K, x2 = 0.4025 | 901.18 ± 4.6 | 1.496 ± 0.11
303.15 K, x2 = 0.5026 | 888.09 ± 4.9 | 1.668 ± 0.12
303.15 K, x2 = 0.6025 | 875.63 ± 5.2 | 1.891 ± 0.13
303.15 K, x2 = 0.7022 | 860.74 ± 5.6 | 2.16 ± 0.15
303.15 K, x2 = 0.8016 | 846.02 ± 6 | 2.585 ± 0.17
303.15 K, x2 = 0.9009 | 832.65 ± 6.3 | 3.101 ± 0.21
313.15 K, x2 = 0.1009 | 933.77 ± 3.8 | 1.051 ± 0.077
313.15 K, x2 = 0.2017 | 920.41 ± 4.1 | 1.086 ± 0.08
313.15 K, x2 = 0.3022 | 904.59 ± 4.5 | 1.16 ± 0.084
313.15 K, x2 = 0.4025 | 892.85 ± 4.8 | 1.246 ± 0.09
313.15 K, x2 = 0.5026 | 879.8 ± 5.2 | 1.369 ± 0.098
313.15 K, x2 = 0.6025 | 867.83 ± 5.4 | 1.524 ± 0.11
313.15 K, x2 = 0.7022 | 852.77 ± 5.8 | 1.732 ± 0.12
313.15 K, x2 = 0.8016 | 839.15 ± 6.2 | 2.023 ± 0.14
313.15 K, x2 = 0.9009 | 824.98 ± 6.5 | 2.37 ± 0.16
323.15 K, x2 = 0.1009 | 925.31 ± 4 | 0.917 ± 0.069
323.15 K, x2 = 0.2017 | 912.27 ± 4.3 | 0.939 ± 0.07
323.15 K, x2 = 0.3022 | 896.34 ± 4.7 | 0.992 ± 0.074
323.15 K, x2 = 0.4025 | 885.58 ± 5 | 1.056 ± 0.078
323.15 K, x2 = 0.5026 | 872.2 ± 5.3 | 1.138 ± 0.083
323.15 K, x2 = 0.6025 | 859.03 ± 5.7 | 1.269 ± 0.091
323.15 K, x2 = 0.7022 | 843.94 ± 6 | 1.404 ± 0.1
323.15 K, x2 = 0.8016 | 831.15 ± 6.3 | 1.61 ± 0.11
323.15 K, x2 = 0.9009 | 818.33 ± 6.7 | 1.869 ± 0.13
333.15 K, x2 = 0.1009 | 916.93 ± 4.2 | 0.812 ± 0.062
333.15 K, x2 = 0.2017 | 905.29 ± 4.5 | 0.826 ± 0.063
333.15 K, x2 = 0.3022 | 887.96 ± 5 | 0.861 ± 0.065
333.15 K, x2 = 0.4025 | 876.93 ± 5.2 | 0.908 ± 0.068
333.15 K, x2 = 0.5026 | 864.04 ± 5.5 | 0.971 ± 0.072
333.15 K, x2 = 0.6025 | 849.87 ± 5.9 | 1.044 ± 0.077
333.15 K, x2 = 0.7022 | 837.74 ± 6.2 | 1.157 ± 0.084
333.15 K, x2 = 0.8016 | 823.68 ± 6.5 | 1.31 ± 0.094
333.15 K, x2 = 0.9009 | 810.66 ± 6.9 | 1.423 ± 0.1
343.15 K, x2 = 0.1009 | 909.05 ± 4.4 | 0.774 ± 0.06
343.15 K, x2 = 0.2017 | 895.76 ± 4.8 | 0.731 ± 0.057
343.15 K, x2 = 0.3022 | 880 ± 5.2 | 0.737 ± 0.057
343.15 K, x2 = 0.4025 | 867.83 ± 5.5 | 0.79 ± 0.061
343.15 K, x2 = 0.5026 | 854.24 ± 5.8 | 0.83 ± 0.063
343.15 K, x2 = 0.6025 | 842.51 ± 6.1 | 0.902 ± 0.068
343.15 K, x2 = 0.7022 | 829.06 ± 6.4 | 0.973 ± 0.072
343.15 K, x2 = 0.8016 | 813.99 ± 6.8 | 1.08 ± 0.079
343.15 K, x2 = 0.9009 | 803.44 ± 7 | 1.218 ± 0.088

CN(C)c1ccccc1 [N,N-dimethylaniline] + C1COCCO1
Conditions | mass density [kg/m3] | viscosity [mPa·s]
283.15 K, x2 = 0.3099 | 990.33 ± 2.4 | 1.68 ± 0.12
283.15 K, x2 = 0.4246 | 998.33 ± 2.2 | 1.66 ± 0.12
283.15 K, x2 = 0.5302 | 1005.32 ± 2.3 | 1.637 ± 0.12
283.15 K, x2 = 0.6278 | 1013.42 ± 2.5 | 1.629 ± 0.12
283.15 K, x2 = 0.7182 | 1019.31 ± 2.7 | 1.607 ± 0.11
283.15 K, x2 = 0.7749 | 1025.23 ± 2.8 | 1.606 ± 0.11
283.15 K, x2 = 0.8551 | 1034.31 ± 3 | 1.602 ± 0.11
283.15 K, x2 = 0.9081 | 1040.92 ± 3.2 | 1.591 ± 0.11
283.15 K, x2 = 0.9538 | 1043.01 ± 3.3 | 1.588 ± 0.11
293.15 K, x2 = 0.3099 | 980.73 ± 2.7 | 1.424 ± 0.1
293.15 K, x2 = 0.4246 | 989.12 ± 2.5 | 1.428 ± 0.1
293.15 K, x2 = 0.5302 | 995.81 ± 2.3 | 1.37 ± 0.098
293.15 K, x2 = 0.6278 | 1003.54 ± 2.3 | 1.362 ± 0.097
293.15 K, x2 = 0.7182 | 1011.33 ± 2.5 | 1.345 ± 0.096
293.15 K, x2 = 0.7749 | 1016.79 ± 2.6 | 1.339 ± 0.096
293.15 K, x2 = 0.8551 | 1023.65 ± 2.8 | 1.326 ± 0.095
293.15 K, x2 = 0.9081 | 1031.25 ± 3 | 1.33 ± 0.095
293.15 K, x2 = 0.9538 | 1035.34 ± 3.1 | 1.327 ± 0.095
303.15 K, x2 = 0.3099 | 973.4 ± 2.8 | 1.199 ± 0.087
303.15 K, x2 = 0.4246 | 980.12 ± 2.7 | 1.182 ± 0.086
303.15 K, x2 = 0.5302 | 986.56 ± 2.5 | 1.166 ± 0.085
303.15 K, x2 = 0.6278 | 993.63 ± 2.3 | 1.157 ± 0.084
303.15 K, x2 = 0.7182 | 1001.04 ± 2.2 | 1.142 ± 0.083
303.15 K, x2 = 0.7749 | 1005.98 ± 2.3 | 1.136 ± 0.083
303.15 K, x2 = 0.8551 | 1014.07 ± 2.5 | 1.131 ± 0.083
303.15 K, x2 = 0.9081 | 1019.01 ± 2.7 | 1.124 ± 0.082
303.15 K, x2 = 0.9538 | 1024.82 ± 2.8 | 1.122 ± 0.082
313.15 K, x2 = 0.3099 | 963.88 ± 3.1 | 1.029 ± 0.076
313.15 K, x2 = 0.4246 | 970.47 ± 2.9 | 1.025 ± 0.076
313.15 K, x2 = 0.5302 | 977.93 ± 2.7 | 1.01 ± 0.075
313.15 K, x2 = 0.6278 | 984.4 ± 2.6 | 1.002 ± 0.074
313.15 K, x2 = 0.7182 | 991.21 ± 2.4 | 0.987 ± 0.073
313.15 K, x2 = 0.7749 | 995.85 ± 2.3 | 0.984 ± 0.073
313.15 K, x2 = 0.8551 | 1003.65 ± 2.3 | 0.976 ± 0.073
313.15 K, x2 = 0.9081 | 1008.93 ± 2.4 | 0.965 ± 0.072
313.15 K, x2 = 0.9538 | 1014.66 ± 2.5 | 0.968 ± 0.072
323.15 K, x2 = 0.3099 | 955.01 ± 3.3 | 0.912 ± 0.068
323.15 K, x2 = 0.4246 | 961.76 ± 3.1 | 0.901 ± 0.068
323.15 K, x2 = 0.5302 | 968.52 ± 3 | 0.886 ± 0.067
323.15 K, x2 = 0.6278 | 974.24 ± 2.8 | 0.879 ± 0.066
323.15 K, x2 = 0.7182 | 981.34 ± 2.6 | 0.872 ± 0.066
323.15 K, x2 = 0.7749 | 985.13 ± 2.5 | 0.861 ± 0.065
323.15 K, x2 = 0.8551 | 993.17 ± 2.4 | 0.857 ± 0.065
323.15 K, x2 = 0.9081 | 997.95 ± 2.2 | 0.848 ± 0.064
323.15 K, x2 = 0.9538 | 1002.4 ± 2.2 | 0.845 ± 0.064
333.15 K, x2 = 0.3099 | 945.84 ± 3.5 | 0.811 ± 0.062
333.15 K, x2 = 0.4246 | 953.15 ± 3.3 | 0.798 ± 0.061
333.15 K, x2 = 0.5302 | 958.78 ± 3.2 | 0.786 ± 0.06
333.15 K, x2 = 0.6278 | 964.37 ± 3.1 | 0.779 ± 0.06
333.15 K, x2 = 0.7182 | 971.52 ± 2.9 | 0.771 ± 0.059
333.15 K, x2 = 0.7749 | 974.75 ± 2.8 | 0.763 ± 0.059
333.15 K, x2 = 0.8551 | 983.43 ± 2.6 | 0.761 ± 0.059
333.15 K, x2 = 0.9081 | 986.57 ± 2.5 | 0.75 ± 0.058
333.15 K, x2 = 0.9538 | 991.84 ± 2.4 | 0.751 ± 0.058
343.15 K, x2 = 0.3099 | 936.89 ± 3.7 | 0.725 ± 0.056
343.15 K, x2 = 0.4246 | 944.04 ± 3.6 | 0.716 ± 0.056
343.15 K, x2 = 0.5302 | 948.37 ± 3.5 | 0.71 ± 0.055
343.15 K, x2 = 0.6278 | 954.22 ± 3.3 | 0.711 ± 0.055
343.15 K, x2 = 0.7182 | 962.15 ± 3.1 | 0.689 ± 0.054
343.15 K, x2 = 0.7749 | 964.44 ± 3.1 | 0.683 ± 0.054
343.15 K, x2 = 0.8551 | 971.97 ± 2.9 | 0.678 ± 0.053
343.15 K, x2 = 0.9081 | 977.83 ± 2.7 | 0.674 ± 0.053
343.15 K, x2 = 0.9538 | 980.14 ± 2.7 | 0.67 ± 0.053
